The source of these data is US6503552B1, “Adding flavidin to a composition as an anti-oxidant” (Council of Scientific and Industrial Research, priority 2000, dated 2003).

A short description of this assay: antioxidant activity in β-carotene-linoleate system (bleaching of β-carotene). It counts as biochemical. The following applies: for antioxidant activity: 120 min incubation at 50° C.; for bleaching time of β-carotene: different concentrations, controls (no additive) decolorized within 120 min. How it is done: In another embodiment of the present invention, evaluation of the antioxidant activity of flavidin has been carried out employing the procedure of Hiddgi et. al. (Phytochem, 37, 1585, 1994) with minor modifications said method comprises the following steps: […]
i) preparing assay reagent of β-carotene in chloroform by mixing linoleic acid and 200 mg of Tween 40 (polyoxyethylene sorbitan monopalmitate), ii) warming polyoxyethylene sorbitan monopalmitate (Tween 40) at a temperature of about 50° C. in a water bath, iii) removing chloroform from assay reagent at a temperature of about 40° C. under vacuum using a rotary evaporator, iv) diluting the resulting solution with triple distilled water and mixing the resulting emulsion well for one minute, v) further diluting the resulting emulsion with oxygenated water, vi) transferring aliquots of the reagent as in step (v) into tubes containing 0.2 ml of desired amount of antioxidant in ethanol, vii) keeping a control of 0.2 ml of ethanol and 4 ml of reagent as prepared in step (v). viii) immediately taking optical density of all sample (t=0) and also taking the O.D at 15 min. interval for 2 hr. (t=120), ix) incubating the tubes in water bath at a temperature of about 50° C. between each measurement taken, and x) measuring the color till the color of β-carotene disappears.
The procedure of Hiddgo et al., (Phytochemistry, 37, 1585, 1994) was followed for testing of antioxidant activity of the flavidin with minor modification. The assay reagent was prepared as follows: 0.2 mg of β-carotene in 0.5 ml of chloroform was added to 20 mg of linoleic acid and 200 mg of Tween 40 (polyoxyethylene sorbitan monopalmitate) were mixed. Tween 40 was warmed in a water bath at 50° C. before use. The chloroform was removed at 40° C. under vacuum using a rotary evaporator. The resulting solution was immediately diluted with 10 ml of triple-distilled water and the emulsion was mixed well for 1 min. The emulsion was further diluted with 40 ml oxygenated water. Four ml aliquots of this reagent were transferred into different tubes containing 0.2 ml of the desired amount of antioxidant in ethanol. A control consisting of 0.2 ml of ethanol and 4 ml of emulsion was prepared. Optical density of all samples were taken immediately (t=0) and at 15 min intervals for 2 h (t=120). The tubes were placed in a water bath at 50° C. between measurements. All determinations were preformed in duplicate. Measurement of color was recorded until the color of β-carotene disappears.
The antioxidant activity (AA) of the isolated compound was evaluated in terms of bleaching the β-carotene using the formula of Hiddgo et al., (Phytochemistry, 37, 1585, 1994). AA=100[1−(Ao−At)/(A^oo−A^ot)] where Ao and A^o are the absorbance measured at the beginning of the incubation for flavidin and the control, respectively, and At and A^ot are the absorbance measured in the presence and absence of the flavidin after incubation for 120 min.

In the case of `Oc1cc2c3c(c1)COc1cc(O)cc(c1-3)CC2` [flavidin, 2,7-dihydroxy 9,10-dihydrophenanthro-4,5 bcd-pyran], the “bleaching time of β-carotene” value is on record as “enhanced”. The antioxidant activity (10 ppm) stood at 68.5%. The same molecule registered an antioxidant activity (25 ppm) of 79%. For the same molecule, the antioxidant activity (50 ppm, maximum activity) was determined as 90.2%.
`COc1ccc(O)c(C(C)(C)C)c1` [BHA, butylated hydroxy anisole, reference compound]: the “bleaching time of β-carotene” value was “enhanced”.
